We go through twelve compounds from patent US9573956B2, “Compounds as dual inhibitors of phosphodiesterases and histone deacetylases” (FUNDACIÓN PARA LA INVESTIGACIÓN MÉDICA APLICADA, priority 2013, dated 2017).

SMILES strings stand for the structures.

The target in assay [1] is T1, HDAC2 (Homo sapiens, UniProt Q92769).
T1 construct: NM_001527; Cat. #50002) is full-length with C-terminal his tag; His (C); purchased BPS Biosciences 50002; host or cells: baculovirus infected Sf9 cells
Kind of assay: HDAC enzyme activity assay (fluorogenic substrate), HDAC2. The settings on record: recombinant enzyme; read-out: HDAC2 inhibition (IC50). It counts as biochemical.

The subject of assay [2] is acetylated histone 3 at Lys9 (AcH3K9). Put plainly: HDAC activity in wild type primary neurons (Western blot AcH3K9). The settings on record: Mus musculus, Neuron, 0.5 h, 30 min, EC50 = 50% increase in AcH3K9 over basal, read-out: AcH3 (EC50). It is filed as cell-based, mouse.
In assay [3] the test system is pCREB. Put plainly: PDE activity in wild type primary neurons (Western blot pCREB). It counts as cell-based. The settings on record: Mus musculus, Neuron, 0.5 h, 30 min, EC50 = 50% increase in pCREB over basal.
For assay [4], the target named is T2, HDAC6 (Homo sapiens, UniProt Q9UBN7).
T2 construct: BC069243; Cat. #50006) is full-length with N-terminal GST tag; GST (N); purchased BPS Biosciences 50006; host or cells: baculovirus infected Sf9 cells
T2 sequence (Q9UBN7 1-1215): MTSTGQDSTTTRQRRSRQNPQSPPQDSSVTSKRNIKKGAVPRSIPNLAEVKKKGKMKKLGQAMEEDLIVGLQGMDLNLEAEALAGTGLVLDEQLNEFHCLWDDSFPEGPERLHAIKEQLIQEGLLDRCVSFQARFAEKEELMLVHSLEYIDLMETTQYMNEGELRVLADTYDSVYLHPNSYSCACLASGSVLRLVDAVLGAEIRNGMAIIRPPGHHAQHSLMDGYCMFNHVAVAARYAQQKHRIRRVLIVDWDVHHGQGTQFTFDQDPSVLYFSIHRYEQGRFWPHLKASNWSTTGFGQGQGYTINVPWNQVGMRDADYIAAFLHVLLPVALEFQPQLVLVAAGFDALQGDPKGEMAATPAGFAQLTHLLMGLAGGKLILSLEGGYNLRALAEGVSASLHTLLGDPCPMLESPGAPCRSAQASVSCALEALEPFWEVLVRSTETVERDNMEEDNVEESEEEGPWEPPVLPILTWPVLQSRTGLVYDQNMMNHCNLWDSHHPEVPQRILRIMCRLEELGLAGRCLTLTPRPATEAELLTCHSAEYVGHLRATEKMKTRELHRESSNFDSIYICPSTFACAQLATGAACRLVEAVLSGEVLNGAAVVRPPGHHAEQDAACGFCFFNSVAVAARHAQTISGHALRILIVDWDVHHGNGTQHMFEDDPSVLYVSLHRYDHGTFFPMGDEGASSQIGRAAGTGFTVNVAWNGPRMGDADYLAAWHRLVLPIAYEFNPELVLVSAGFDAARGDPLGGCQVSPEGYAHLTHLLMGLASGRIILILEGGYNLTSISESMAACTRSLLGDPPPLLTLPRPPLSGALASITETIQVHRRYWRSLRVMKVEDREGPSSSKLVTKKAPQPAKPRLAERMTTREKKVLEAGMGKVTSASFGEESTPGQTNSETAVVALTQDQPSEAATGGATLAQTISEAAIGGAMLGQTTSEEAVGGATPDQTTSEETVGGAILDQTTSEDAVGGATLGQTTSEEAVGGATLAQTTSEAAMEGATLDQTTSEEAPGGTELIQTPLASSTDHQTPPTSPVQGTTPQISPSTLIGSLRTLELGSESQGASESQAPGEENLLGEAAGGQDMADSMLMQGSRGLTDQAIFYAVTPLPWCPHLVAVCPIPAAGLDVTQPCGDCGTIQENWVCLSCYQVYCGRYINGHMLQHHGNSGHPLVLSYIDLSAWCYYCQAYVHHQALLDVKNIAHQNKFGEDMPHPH
Put plainly: HDAC enzyme activity assay (fluorogenic substrate), HDAC6. Conditions: recombinant enzyme; read-out: HDAC6 inhibition (IC50). It is filed as biochemical.

For assay [5], the target named is T3, PDE5A (Homo sapiens, UniProt O76074).
T3 construct: they are full-length with N-terminal GST tag; GST (N); purchased BPS Biosciences 60050; host or cells: baculovirus infected Sf9 cells
Kind of assay: PDE enzyme activity assay (HTRF cGMP), PDE5A. Conditions: recombinant enzyme; read-out: PDE5A1 inhibition (IC50). It is filed as biochemical. On the technique in general: Time-resolved FRET reads energy transfer from a long-lived donor to a nearby acceptor.

For assay [6], the target named is HDAC1 (Homo sapiens, UniProt Q13547). Kind of assay: HDAC enzyme activity assay (fluorogenic substrate), HDAC1. It counts as biochemical. Conditions: recombinant enzyme; read-out: HDAC1 inhibition (IC50).
Assay [7] concerns the target T4, HDAC3 (Homo sapiens, UniProt O15379).
T4 construct: is full-length with C-terminal his tag and human NCOR2, N-terminal GST tag; His (C); purchased BPS Biosciences 50003; host or cells: baculovirus infected Sf9 cells
Kind of assay: HDAC enzyme activity assay (fluorogenic substrate), HDAC3. Conditions: recombinant enzyme; read-out: HDAC3 inhibition (IC50). It counts as biochemical.

The subject of assay [8] is AcH3. Put plainly: In-vivo activity, hippocampus of wild type mice: AcH3. Further details: species or system mouse. Conditions: i.p. 40 mg/kg, hippocampus one hour later. The protocol:
(§1) To determine the ability of the compounds to inhibit HDAC and PDE in the brain, the compound was administered to wild type mice by i.p. at a dose of 40 mg/kg (n=3). Another group of animals received the vehicle (1/1/8, v:v:v, DMSO/Tween 20/saline). One hour later, mice were sacrificed by cervical dislocation and their hippocampus was quickly dissected from the brains.
(§2) Total tissue homogenates were obtained by homogenizing the hippocampus in a cold lysis buffer with protease inhibitors (0.2 M NaCl, 0.1 M HEPES, 10% glycerol, 200 mM NaF, 2 mM Na4P2O7, 5 mM EDTA, 1 mM EGTA, 2 mM DTT, 0.5 mM PMSF, 1 mM Na3VO4 and Complete Protease Inhibitor Cocktail, Roche Diagnostics). The homogenate was then centrifuged at 14,000×g at 4° C. for 20 min and the supernatant aliquoted and stored at −80° C. Total protein concentrations were determined using the BioRad Bradford protein assay (BioRad Laboratories). Protein samples were analyzed as described in the “in vitro” section.

The target in assay [9] is T5, PDE9A isoform b (Homo sapiens, UniProt O76083).
T5 construct: they are full-length with N-terminal GST tag; GST (N); purchased BPS Biosciences 60090; host or cells: baculovirus infected Sf9 cells
Put plainly: PDE enzyme activity assay (HTRF cGMP), PDE9A. It is filed as biochemical. The settings on record: recombinant enzyme; read-out: PDE9A inhibition (IC50).

The test system of assay [10] is pCREB. Kind of assay: In-vivo activity, hippocampus of wild type mice: pCREB. Further details: species or system mouse. The settings on record: i.p. 40 mg/kg, hippocampus one hour later. As to the method:
as §1, §2

HDAC1, sequence (Q13547 whole entry): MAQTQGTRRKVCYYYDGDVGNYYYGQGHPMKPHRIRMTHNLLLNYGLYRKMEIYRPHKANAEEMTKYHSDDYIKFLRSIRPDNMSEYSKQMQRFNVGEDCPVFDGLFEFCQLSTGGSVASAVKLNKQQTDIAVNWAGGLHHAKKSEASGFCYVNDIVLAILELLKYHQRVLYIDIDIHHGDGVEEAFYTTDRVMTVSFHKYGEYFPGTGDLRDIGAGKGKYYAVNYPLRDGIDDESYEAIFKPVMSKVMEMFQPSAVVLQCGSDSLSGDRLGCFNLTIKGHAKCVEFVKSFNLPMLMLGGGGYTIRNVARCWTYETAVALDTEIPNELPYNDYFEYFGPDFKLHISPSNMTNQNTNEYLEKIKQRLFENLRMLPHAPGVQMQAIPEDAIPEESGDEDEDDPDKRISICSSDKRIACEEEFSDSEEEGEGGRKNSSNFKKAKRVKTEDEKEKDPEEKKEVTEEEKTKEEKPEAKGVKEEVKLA
T1 sequence (Q92769 whole entry): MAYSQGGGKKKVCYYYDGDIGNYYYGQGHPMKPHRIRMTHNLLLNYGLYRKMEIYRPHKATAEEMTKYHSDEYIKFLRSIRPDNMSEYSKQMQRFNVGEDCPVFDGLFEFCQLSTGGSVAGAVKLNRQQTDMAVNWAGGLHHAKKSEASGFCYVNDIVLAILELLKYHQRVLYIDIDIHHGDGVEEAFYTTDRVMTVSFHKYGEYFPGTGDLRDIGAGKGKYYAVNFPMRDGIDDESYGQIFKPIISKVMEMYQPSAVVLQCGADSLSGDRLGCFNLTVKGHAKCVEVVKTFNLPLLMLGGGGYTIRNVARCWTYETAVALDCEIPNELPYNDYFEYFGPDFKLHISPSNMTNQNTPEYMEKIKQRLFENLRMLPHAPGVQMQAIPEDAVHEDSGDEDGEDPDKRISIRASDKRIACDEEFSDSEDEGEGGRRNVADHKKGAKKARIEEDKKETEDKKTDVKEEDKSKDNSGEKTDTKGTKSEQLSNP
T4 sequence (O15379 whole entry): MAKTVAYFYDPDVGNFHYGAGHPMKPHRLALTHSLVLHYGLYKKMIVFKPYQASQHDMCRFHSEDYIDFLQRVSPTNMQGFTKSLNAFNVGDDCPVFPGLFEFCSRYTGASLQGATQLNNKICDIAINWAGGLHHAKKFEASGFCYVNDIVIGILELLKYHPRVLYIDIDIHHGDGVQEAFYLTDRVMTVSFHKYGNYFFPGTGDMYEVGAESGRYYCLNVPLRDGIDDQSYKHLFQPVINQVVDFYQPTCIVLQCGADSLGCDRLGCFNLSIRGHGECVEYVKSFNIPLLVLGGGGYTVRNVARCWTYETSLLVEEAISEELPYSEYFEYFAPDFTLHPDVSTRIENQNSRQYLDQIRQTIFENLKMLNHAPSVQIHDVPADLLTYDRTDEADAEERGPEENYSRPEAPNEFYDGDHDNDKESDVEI
T4 sequence (Q9Y618 395-489 partner limits assumed): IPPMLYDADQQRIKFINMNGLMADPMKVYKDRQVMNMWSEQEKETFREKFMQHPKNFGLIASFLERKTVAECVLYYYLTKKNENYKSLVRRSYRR
T5 sequence (O76083 1-533 isoform O76083-2): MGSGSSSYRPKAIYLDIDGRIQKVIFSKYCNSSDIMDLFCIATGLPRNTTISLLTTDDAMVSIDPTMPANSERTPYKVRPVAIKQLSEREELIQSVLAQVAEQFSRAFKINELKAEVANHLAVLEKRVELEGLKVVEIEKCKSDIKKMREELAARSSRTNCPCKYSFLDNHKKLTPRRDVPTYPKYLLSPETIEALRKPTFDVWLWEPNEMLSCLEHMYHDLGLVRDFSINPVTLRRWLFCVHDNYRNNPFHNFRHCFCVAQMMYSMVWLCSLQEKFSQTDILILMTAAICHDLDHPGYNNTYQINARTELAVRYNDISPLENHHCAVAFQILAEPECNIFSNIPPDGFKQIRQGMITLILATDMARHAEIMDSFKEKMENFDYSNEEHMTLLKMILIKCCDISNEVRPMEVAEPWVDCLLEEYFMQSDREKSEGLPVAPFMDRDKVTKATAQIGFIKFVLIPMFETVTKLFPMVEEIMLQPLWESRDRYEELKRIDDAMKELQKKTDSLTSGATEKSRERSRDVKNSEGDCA

For `CCCc1nc(C)c2c(=O)[nH]c(-c3cc(CC4CC(C(=O)NO)C4)ccc3OCC)nn12` (stereo not shown) [Example 2-07, 3-[[4-ethoxy-3-(5-methyl-4-oxo-7-propyl-3H-imidazo[5,1-f][1,2,4]triazin-2-yl)phenyl]methyl]cyclobutanecarbohydroxamic acid], the IC50 was 1 to 10 µM in [1], 0.01 to 1 µM in [4], less than 0.01 µM in assay [5] and 0.01 to 1 µM in [6]. For the same compound, the EC50 in assay [2] and in assay [3] was 0.01 to 1 µM throughout.
In the case of `CCCc1nn(C)c2c(=O)[nH]c(-c3cc(Cc4ccc(C(=O)NO)o4)ccc3OCC)nc12` [Example 1-17], the IC50 in assay [1] was more than 10 µM; in assay [7], more than 10 µM; in assay [4], 0.01 to 1 µM; in assay [5], less than 0.01 µM; in [6], 1 to 10 µM.
On to `CCCc1nn(C)c2c(=O)[nH]c(-c3cc(NC4CCN(c5ncc(C(=O)NO)cn5)CC4)ccc3OCC)nc12` [Example 1-22, 2-[4-[4-ethoxy-3-(1-methyl-7-oxo-3-propyl-6H-pyrazolo[4,3-d]pyrimidin-5-yl)anilino]-1-piperidyl]pyrimidine-5-carbohydroxamic acid], for which the IC50 in assay [1] is 0.01 to 1 µM; in [7], 0.01 to 1 µM; in assay [4], 0.01 to 1 µM; in assay [5], less than 0.01 µM; in assay [6] it was 0.01 to 1 µM.
Regarding `CCCc1nn(C)c2c(=O)[nH]c(-c3cc(CC4CCN(c5ncc(C(=O)NO)cn5)CC4)ccc3OCC)nc12` [Example 1-24, 2-[4-[[4-ethoxy-3-(1-methyl-7-oxo-3-propyl-6H-pyrazolo[4,3-d]pyrimidin-5-yl)phenyl]methyl]-1-piperidyl]pyrimidine-5-carbohydroxamic acid], the IC50 in [1] is 0.01 to 1 µM; in assay [7], 0.01 to 1 µM; in [4], 1 to 10 µM; in assay [5], less than 0.01 µM; in assay [6], 0.01 to 1 µM.
In the case of `CCCc1nn(C)c2c(=O)[nH]c(-c3cc(CN4CCN(c5ncc(C(=O)NO)cn5)CC4)ccc3OCC)nc12` [Example 1-48, 2-[4-[[4-ethoxy-3-(1-methyl-7-oxo-3-propyl-6H-pyrazolo[4,3-d]pyrimidin-5-yl)phenyl]methyl]piperazin-1-yl]pyrimidine-5-carbohydroxamic acid], the IC50 was 0.01 to 1 µM in assay [1], 0.01 to 1 µM in assay [4], less than 0.01 µM in assay [5] and 0.01 to 1 µM in [6]. Moreover, the EC50 in assay [2] and in assay [3] was 0.01 to 1 µM each time.
Turning to `O=C(CCCCCCC(=O)Nc1ccccc1)NO` [Vorinostat, reference compound], the “AcH3, increment in biological response vs basal” value in [8] is reported as “+++ (basal×2≦(+++)<basal×3)”. The 50% inhibitory concentration (IC50) in [9] and in assay [5] was more than 10 µM each time. For the same compound, the “pCREB, increment in biological response vs basal” value in [10] is given as “N.E. (N.E. means No Effect)”.
In the case of `CCCc1nn(C)c2c(=O)[nH]c(-c3cc(N(C)C4CCN(c5ncc(C(=O)NO)cn5)CC4)ccc3OCC)nc12` [Example 1-25], the IC50 in assay [1] was 0.01 to 1 µM; in assay [7] it was 0.01 to 1 µM; in [4], 0.01 to 1 µM; in assay [5], less than 0.01 µM; in [6], 0.01 to 1 µM. Also, the EC50 in assay [2] is 0.01 to 1 µM; in assay [3], 1 to 10 µM.
`CCCc1nn(C)c2c(=O)[nH]c(-c3cc(-c4ccc(C(=O)NO)cc4)ccc3OCC)nc12` [Example 1-30]: the IC50 is 1 to 10 µM in assay [1], 0.01 to 1 µM in [4], less than 0.01 µM in [5] and 0.01 to 1 µM in assay [6]. The EC50 in assay [2] and in assay [3] was 0.01 to 1 µM each time.
Take `CCCc1nn(C)c2c(=O)[nH]c(-c3cc(C4CCC(C(=O)NO)CC4)ccc3OCC)nc12` (stereo not shown) [Example 1-40, 4-[4-ethoxy-3-(1-methyl-7-oxo-3-propyl-6H-pyrazolo[4,3-d]pyrimidin-5-yl)phenyl]cyclohexanecarbohydroxamic acid]: the IC50 in assay [1] was more than 10 µM; in [4] it was 0.01 to 1 µM; in [5], 0.01 to 1 µM; in [6] it was 1 to 10 µM. Also, the EC50 in assay [2] lay within 0.01 to 1 µM; in assay [3], 1 to 10 µM.
For `CCCc1nn(C)c2c(=O)[nH]c(-c3cc(CC4CCC(C(=O)NO)CC4)ccc3OCC)nc12` (stereo not shown) [Example 1-29, 4-[[4-ethoxy-3-(1-methyl-7-oxo-3-propyl-6H-pyrazolo[4,3-d]pyrimidin-5-yl)phenyl]methyl]cyclohexanecarbohydroxamic acid], the IC50 was more than 10 µM in [1], 0.01 to 1 µM in assay [4], 0.01 to 1 µM in assay [5] and 0.01 to 1 µM in assay [6]. The EC50 in [2] and in assay [3] was 1 to 10 µM in each case.
Regarding `CCCc1nn(C)c2c(=O)[nH]c(-c3cc(Cc4ccc(CC(=O)NO)cc4)ccc3OCC)nc12` [Example 1-18], the 50% inhibitory concentration (IC50) in [1] is more than 10 µM; in [7], more than 10 µM; in [4], 0.01 to 1 µM; in assay [5], 0.01 to 1 µM; in [6] it was more than 10 µM.
`CCCc1nn(C)c2c(=O)[nH]c(-c3cc(S(=O)(=O)NC4CCN(c5ncc(C(=O)NO)cn5)CC4)ccc3OCC)nc12` [Example 1-07]: the IC50 in assay [9] is 1 to 10 µM; in [1], 0.01 to 1 µM; in assay [7], 0.01 to 1 µM; in [4], 0.01 to 1 µM; in [5], less than 0.01 µM; in assay [6], 0.01 to 1 µM.

By IC50 is commonly meant the concentration that gives 50% inhibition.
